Measured values as given in patent publication US8268849B2, “Multifunctional Antioxidants and methods of use thereof” (priority 2007, dated 2012).

Assays:
[1] = Chelation study by ESI-MS, Zn^2+ solution; format: binding; details: 10:1 metal:compound, 45 minutes of mixing
Description: (§1) The relative amount of ions bound by JHX-1-JHX-8 was determined by electrospray ionization mass spectrometry (ESI-MS) according to the method of Baron and Hering (Baron and Hering (1998) Spectrometry J. Environ. Qual., 27:844-850). In this method solutions containing Fe^2+, Fe^3+, Cu^1+, Cu^2+, Zn^2+, Ca^2+, Mg^2+ were mixed with compound in ratios of 10:1, 1:1, and 1:10. After 45 minutes of mixing, each solution was directly infused into the MS with constant ionization energy and the relative decreases of the parent peaks in these solutions were determined. […] FIG. 3 illustrates ion binding with increased Fe^+2 concentrations results in decreased compound parent peak heights by ESI-MS when compounds contain appropriate functional groups for metal ion chelation.

[2] = Drug levels in target tissues after oral administration; format: in vivo, Sprague Dawley rats; details: normal young rats; for drug detected in the brain: chow containing 0.05% drug for 6 days; for Lens drug level / retinal drug level: chow containing 0.05% drug for 6 days (80±10 mg/kg/day), HPLC; for retinal drug level: posterior segment
Description: To determine whether JHX-4 and JHX-8 can reach the target tissues of lens, retina and brain after oral administration, two groups of 4 young (100 g) Sprague Dawley rats were administered rat chow containing 0.05% of either drug for 6 days. […] Lens and posterior segments were homogenized in glass homogenizers in ice-cold PBS, pH 7.4, after addition of an aliquot of JHX-1 as an internal standard. The homogenates were deproteinized with 48 mM NaF and centrifuged. The supernatant was extracted with acetone. The acetone extract was evaporated under vacuum and the residue was dissolved in acetonitrile. Whole brains were similarly extracted; however, brain homogenates were deproteinized with equal amounts of 0.3 N Na2SO4 and 0.3 N Ba(OH)2. Drug levels were measured by reverse-phase HPLC with a Phenomenex LUNA 5 μm C18 column and an isocratic elution of 1:1 MeOH:Water. Detection was conducted at 245 nm and compound levels were quantified using standard curves. Lens and retinal drug levels were 200±11 and 1373±38 ng/mg protein for JHX-4 and 90±5 and 1060±12 ng/mg protein for JHX-8 respectively. Only trace amounts of either compound were detected in the brain.

[3] = test system: SRA-1 human lens epithelial cells; experiment: ROS staining (H2DCF-DA) in lens epithelial cells; format: cell-based; details: 24 hour incubation, H2DCF-DA stain; for ROS staining, ROS generated by Fenton reaction: 0.1 mM Fe^2+ and 0.1 mM hydrogen peroxide; for ROS staining, ROS initiated by homocysteine: 10 mM homocysteine (ER stress)
Description: The SRA-1 human lens epithelium cell line (Ibaraki et al. (1998) Exp. Eye Res., 67:577-85) was used to evaluate the antioxidant activity of JHX-1-8. These cells were cultured in DMEM media containing 10% fetal bovine serum (FBS), glutamine, NaHCO3, penicillin, and streptomycin at 37° C. in humidified atmosphere of 5% CO2 and 95% air until subconfluent (2-4 days). The cells were passaged when 80-90% confluent by treatment with trypsin-EDTA. The cells were plated at a density of 1×10^4 cells onto 96-well plates or 1×10^6 cells onto 100-mm dishes. ROS levels/effects in cells treated with JHX-1-8 were compared to similar cells treated with the water soluble Vitamin E derivative, Trolox (antioxidant control) or no drug (control).
The compounds were initially screened for antioxidant activity in 24 hour cultured SRA-1 human lens epithelial cells. Reactive oxygen species (ROS) in these cells were generated through both the Fenton reaction in which 0.1 mM Fe^2+ and 0.1 mM hydrogen peroxide were added to the culture media, or by culturing the lens with 10 mM homocysteine which induces endoplasmic reticular (ER) stress that results in the unfolded protein response (UPR) that subsequently generates the ROS. ROS were visualized with 2′,7′-dichlorodihydrofluorescein diacetate (DCF) staining. More specifically, after 24 hours of incubation, all cells were washed 2× with PBS and then incubated at room temperature for 1 hour with 10 μM H2DCF-DA (Invitrogen) stain. Fluorescent ROS staining was analyzed by quantifying pixel intensities of images obtained by fluorescent microscopy. As illustrated below in FIGS. 4A and 4B, compounds with chelating groups only produced a dose-dependent reduction in Fenton Reaction generated ROS. […] Indeed, homocysteine activates ER stress which subsequently initiates ROS through an Unfolded Protein Response (UPR).

[4] = Chelation study by ESI-MS, Cu^2+ solution; format: binding; details: 10:1 metal:compound, 45 minutes of mixing
Description: as §1

[5] = Chow consumption, body weight and salivary gland protection after whole head irradiation; format: in vivo, Long Evans rats; details: for body weight after irradiation: 15 Gy whole head irradiation; for protection of the salivary gland: after whole head irradiation
Text: Cataracts were induced by whole head gamma irradiation in 24 male Long Evans (150-200 g) rats. […] Because of the amount of drug required for this long-term study, the percentage of JHX-4 and JHX-8 utilized was ½ of the dose used in the diabetic study. […] Lens changes were monitored every 7 days by portable slit lamp and recorded on a scale from 0-6 with 0: Clear, 1: Posterior subcapsular haze, 2: Spokes, suture enhancement and powdery posterior subcapsular deposits, 3: Prominent posterior subcapsular punctate opacities with spokes and suture enhancement, 4: Posterior subcapsular opacity blocks appearance of retinal vessels, 5: Start cortical involvement, 6: Total lens opacity, visible with naked eye. […] Subsequently, all rats received standard rat chow with/without JHX-4 or -8.

[6] = Chelation study by ESI-MS, Mg^2+ solution; format: binding; details: 10:1 metal:compound, 45 minutes of mixing
Description: as §1

[7] = test system: diabetic cataract formation; experiment: Cataract formation in diabetic rats; format: in vivo; details: for blood sugar / toxic effects: diabetic rats; for delay of vacuole formation / delay of cortical cataracts / lens sorbitol levels: streptozotocin diabetic rats; for delay of vacuole formation / delay of cortical cataracts: 0.025% in chow; for delay of vacuole formation: versus untreated diabetic group (14 days); for delay of cortical cataracts: versus untreated diabetic group (29 days); for lens sorbitol levels: end of study (47 days)
Description: Diabetes was induced in 100 g Sprague Dawley rats with streptozotocin injection (75 mg/kg) and all rats with blood sugar levels >300 mg/dL were divided into 4 groups of 8 rats each. One group received only standard rat chow (untreated diabetic) while each of the other groups received chow containing either 0.0125% ARI Al1576, 0.025% JHX-4 or 0.025% JHX-8. Lens changes were monitored by at 3-5 day intervals by slit lamp following tropicamide mydriasis. As summarized in FIGS. 8A-8C, vacuole formation began by 14 days in the untreated diabetic group with cortical opacities observed by 29 days and mature cataracts by 44 days. […] In the two antioxidant treated groups, vacuole formation was delayed by 19 and 11 days by JHX-4 and JHX-8, respectively, and cortical cataracts by 9 and 3 days, respectively. At the end of the study (47 days) all rats were equally diabetic with HbA1C levels >11.9%. All eyes were enucleated and lens sorbitol levels were measured as previously described (Kador et al. (2007) J. Ocul. Pharmacol. Ther., 23:116-23). […] Tissue levels of JHX-4 and -8 in the lens, neural retina and brain were determined after 47 days of feeding as described above (FIG. 10). […] Overall drug levels in both the lens and retina were ca. 3-fold higher in the diabetic rats with brain levels also now present. This increase may be due to either an accumulation of drug, or increased permeability of tissues and the BBB to drug in streptozotocin diabetic rats (Mooradian et al. (2005) Diabetes, 54:2977-82).

[8] = Chelation study by ESI-MS, Fe^2+ solution; format: binding; details: 10:1 metal:compound, 45 minutes of mixing
Description: as §1

[9] = Chelation study by ESI-MS, Ca^2+ solution; format: binding; details: 10:1 metal:compound, 45 minutes of mixing
Description: as §1

| SMILES | % Parent Peak Remaining at 10:1 Solution of Metal:Compound [1] [%] | drug detected in the brain [2] | Lens drug level [2] [ng/mg protein] | retinal drug level [2] [ng/mg protein] | ROS staining, ROS generated by Fenton reaction [3] | ROS staining, ROS initiated by homocysteine [3] | % Parent Peak Remaining at 10:1 Solution of Metal:Compound [4] [%] | body weight after irradiation [5] | protection of the salivary gland [5] | % Parent Peak Remaining at 10:1 Solution of Metal:Compound [6] [%] | blood sugar [7] | toxic effects [7] | delay of vacuole formation [7] [days] | delay of cortical cataracts [7] [days] | lens sorbitol levels [7] | % Parent Peak Remaining at 10:1 Solution of Metal:Compound [8] [%] | % Parent Peak Remaining at 10:1 Solution of Metal:Compound [9] [%] |
| --- | --- | --- | --- | --- | --- | --- | --- | --- | --- | --- | --- | --- | --- | --- | --- | --- | --- |
| CN(C)S(=O)(=O)N1C(=O)CN(c2ncc(O)cn2)CC1=O [JHX-4, 1-N,N′-dimethylsulfamoyl-4-(5-hydroxy-2-pyrimidyl)piperazine-2,6-dione] | 12.7 | trace amounts | 200±11 | 1373±38 | protected against ROS | reduced ROS staining similar to that with Trolox | 3.0 | reducing post-irradiation weight loss | provided systemic protection | 100.0 | did not alter | No apparent toxic effects | 19 | 9 | did not alter | 6.9 | 100.0 |
| COc1nc(N2CC(=O)N(S(=O)(=O)N(C)C)C(=O)C2)nc(OC)c1O [JHX-8, 1-N,N′-dimethylsulfamoyl-4-(4,6-dimethoxy-5-hydroxy-2-pyrimidyl)piperazine-2,6-dione] | 14.6 | trace amounts | 90±5 | 1060±12 | protected against ROS | reduced ROS staining similar to that with Trolox | 3.6 | reducing post-irradiation weight loss | provided systemic protection | 100.0 | did not alter | No apparent toxic effects | 11 | 3 | did not alter | 7.5 | 100.0 |
